Assays:
[1] = Growth inhibition of multidrug-resistant human 2780AD cells; type: functional, cell-based; conditions: A2780 ADR
A2780 [2] = experiment: Growth inhibition of human A2780 cells; type: functional, cell-based
[3] = biological target: T1, ATP-dependent translocase ABCB1 (Homo sapiens, UniProt P08183); experiment: Inhibition of Pgp in multidrug-resistant human 2780AD cells assessed as calcein accumulation at 0.25 ug/mL relative to control; type: cell-based; parameters: scale not given: the % may be the effect or the level left; conditions: a2780 adr
T1 sequence (P08183 whole entry): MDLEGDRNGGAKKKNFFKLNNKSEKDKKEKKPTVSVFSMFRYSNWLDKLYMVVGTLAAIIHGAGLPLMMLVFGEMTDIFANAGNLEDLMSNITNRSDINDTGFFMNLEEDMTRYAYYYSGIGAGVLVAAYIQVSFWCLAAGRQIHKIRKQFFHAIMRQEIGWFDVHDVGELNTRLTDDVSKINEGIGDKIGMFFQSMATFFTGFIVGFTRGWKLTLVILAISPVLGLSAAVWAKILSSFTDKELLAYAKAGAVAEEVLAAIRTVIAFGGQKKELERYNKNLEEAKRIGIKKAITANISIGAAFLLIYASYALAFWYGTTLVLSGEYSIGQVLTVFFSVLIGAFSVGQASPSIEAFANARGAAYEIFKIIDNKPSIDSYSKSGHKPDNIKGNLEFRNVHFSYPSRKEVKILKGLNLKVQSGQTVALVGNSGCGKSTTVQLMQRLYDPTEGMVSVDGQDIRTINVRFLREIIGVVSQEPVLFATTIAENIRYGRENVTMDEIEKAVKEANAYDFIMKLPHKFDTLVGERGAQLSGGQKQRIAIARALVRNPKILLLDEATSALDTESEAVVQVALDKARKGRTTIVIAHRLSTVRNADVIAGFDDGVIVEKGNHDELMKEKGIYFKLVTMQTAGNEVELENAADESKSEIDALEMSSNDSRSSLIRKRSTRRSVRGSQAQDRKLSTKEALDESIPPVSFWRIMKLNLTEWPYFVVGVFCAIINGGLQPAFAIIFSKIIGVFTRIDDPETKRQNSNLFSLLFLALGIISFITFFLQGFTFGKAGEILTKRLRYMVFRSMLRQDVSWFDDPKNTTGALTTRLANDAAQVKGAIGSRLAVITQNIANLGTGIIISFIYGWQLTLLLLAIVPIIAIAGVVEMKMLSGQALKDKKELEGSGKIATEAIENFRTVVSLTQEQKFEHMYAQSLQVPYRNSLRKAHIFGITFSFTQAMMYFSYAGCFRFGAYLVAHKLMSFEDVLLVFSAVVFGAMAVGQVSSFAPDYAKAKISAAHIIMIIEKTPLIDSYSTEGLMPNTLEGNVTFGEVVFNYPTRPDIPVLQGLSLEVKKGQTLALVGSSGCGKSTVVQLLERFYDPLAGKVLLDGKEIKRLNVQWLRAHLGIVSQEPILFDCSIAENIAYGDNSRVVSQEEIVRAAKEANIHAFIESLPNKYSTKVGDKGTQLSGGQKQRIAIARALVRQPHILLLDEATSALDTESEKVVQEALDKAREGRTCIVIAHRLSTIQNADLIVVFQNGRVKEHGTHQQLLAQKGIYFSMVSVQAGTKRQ

[4] = biological target: T1, ATP-dependent translocase ABCB1; experiment: Inhibition of Pgp in multidrug-resistant human 2780AD cells assessed as vincristine accumulation at 10 ug/mL relative to control; type: cell-based; parameters: scale not given: the % may be the effect or the level left; conditions: a2780 adr
[5] = Cytotoxicity against multidrug-resistant human 2780AD cells assessed as cell viability at 10 uM; type: functional; conditions: A2780 ADR, read-out: Activity
[6] = biological target: T1, ATP-dependent translocase ABCB1; experiment: Inhibition of Pgp in multidrug-resistant human 2780AD cells assessed as vincristine accumulation at 1.0 ug/mL relative to verapamil; type: cell-based; parameters: scale not given: the % may be the effect or the level left; conditions: a2780 adr
A2780 [7] = experiment: Cytotoxicity against human A2780 cells assessed as cell viability at 10 uM; type: functional; conditions: read-out: Activity
[8] = Cytotoxicity against multidrug-resistant human 2780AD cells assessed as cell viability at 2 uM; type: functional; conditions: A2780 ADR, read-out: Activity
HepG2 = experiment: Growth inhibition of human HepG2 cells; type: functional, cell-based
[9] = biological target: T1, ATP-dependent translocase ABCB1; experiment: Inhibition of Pgp in multidrug-resistant human 2780AD cells assessed as vincristine accumulation at 1.0 ug/mL relative to control; type: cell-based; parameters: scale not given: the % may be the effect or the level left; conditions: a2780 adr
A2780 [10] = experiment: Cytotoxicity against human A2780 cells assessed as cell viability at 0.2 uM; type: functional; conditions: read-out: Activity
A2780 [11] = experiment: Cytotoxicity against human A2780 cells assessed as cell viability at 2 uM; type: functional; conditions: read-out: Activity
[12] = Cytotoxicity against multidrug-resistant human 2780AD cells assessed as cell viability at 0.2 uM; type: functional; conditions: A2780 ADR, read-out: Activity
[13] = biological target: T1, ATP-dependent translocase ABCB1; experiment: Inhibition of Pgp in multidrug-resistant human 2780AD cells assessed as vincristine accumulation at 10 ug/mL relative to verapamil; type: cell-based; parameters: scale not given: the % may be the effect or the level left; conditions: a2780 adr
[14] = Growth inhibition of human WI38 cells; type: cell-based; conditions: WI-38
[15] = biological target: T1, ATP-dependent translocase ABCB1; experiment: Inhibition of Pgp in multidrug-resistant human 2780AD cells assessed as calcein accumulation at 25 ug/mL relative to control; type: cell-based; parameters: scale not given: the % may be the effect or the level left; conditions: a2780 adr
[16] = biological target: T1, ATP-dependent translocase ABCB1; experiment: Inhibition of Pgp in multidrug-resistant human 2780AD cells assessed as vincristine accumulation at 0.1 ug/mL relative to verapamil; type: cell-based; parameters: scale not given: the % may be the effect or the level left; conditions: a2780 adr
[17] = biological target: T1, ATP-dependent translocase ABCB1; experiment: Inhibition of Pgp in multidrug-resistant human 2780AD cells assessed as vincristine accumulation at 0.1 ug/mL relative to control; type: cell-based; parameters: scale not given: the % may be the effect or the level left; conditions: a2780 adr
[18] = biological target: T1, ATP-dependent translocase ABCB1; experiment: Inhibition of Pgp in multidrug-resistant human 2780AD cells assessed as calcein accumulation at 2.5 ug/mL relative to control; type: cell-based; parameters: scale not given: the % may be the effect or the level left; conditions: a2780 adr
WI-38 VA13 = experiment: Growth inhibition of human VA13 cells; type: functional, cell-based

Compound: CC[C@]1(O)C[C@H]2CN(CCc3c([nH]c4ccccc34)[C@@](C(=O)OC)(c3cc4c(cc3OC)N(C=O)[C@H]3[C@@](O)(C(=O)OC)[C@H](OC(C)=O)[C@]5(CC)C=CCN6CC[C@]43[C@@H]65)C2)C1 [VINCRISTINE]
- IC50 [1]: 0.311 µM
- IC50 (A2780 [2]): 0.0031 µM

Compound: CC(=O)O[C@H]1C(=O)[C@@]2(C)[C@H]([C@H](OC(=O)c3ccccc3)[C@]3(O)C[C@H](OC(=O)[C@H](O)[C@@H](NC(=O)c4ccccc4)c4ccccc4)C(C)=C1C3(C)C)[C@]1(OC(C)=O)CO[C@@H]1C[C@@H]2O [PACLITAXEL]
- IC50 [1]: 183 µM

Compound: C=C1[C@@H](OC(C)=O)CC[C@@]2(C)C[C@H](OC(C)=O)C3=C(C)C[C@H](O)[C@@H]([C@@H](OC(C)=O)[C@H]12)C3(C)C
- Activity [3]: 104%
- Activity [4]: 242%
- viability at 10 µM [5]: 77%
- Activity [6]: 79%
- viability at 10 µM (A2780 [7]): 20%
- viability at 2 µM [8]: 96%
- IC50 (HepG2): 216 µM
- Activity [9]: 147%
- viability at 0.2 µM (A2780 [10]): 97%
- viability at 2 µM (A2780 [11]): 95%
- viability at 0.2 µM [12]: 101%
- Activity [13]: 53%
- IC50 [14]: 133 µM
- Activity [15]: 148%
- Activity [16]: 94%
- Activity [17]: 102%
- Activity [18]: 86%
- IC50 (WI-38 VA13): 80 µM

Compound: COc1cccc2c1C(=O)c1c(O)c3c(c(O)c1C2=O)C[C@@](O)(C(=O)CO)C[C@@H]3O[C@H]1C[C@H](N)[C@H](O)[C@H](C)O1 [DOXORUBICIN]
- IC50 [1]: 0.298 µM
- IC50 (A2780 [2]): 0.0057 µM

Compound: C=C1[C@@H](OC(C)=O)CC[C@@]2(C)C[C@H](O)C3=C(C)C[C@H](OC(=O)/C=C/c4ccccc4)[C@@H]([C@@H](OC(C)=O)[C@H]12)C3(C)C
- Activity [3]: 107%
- Activity [4]: 527%
- viability at 10 µM [5]: 38%
- Activity [6]: 146%
- viability at 10 µM (A2780 [7]): 27%
- viability at 2 µM [8]: 86%
- IC50 (HepG2): 15.7 µM
- Activity [9]: 272%
- viability at 0.2 µM (A2780 [10]): 89%
- IC50 [1]: 8 µM
- viability at 2 µM (A2780 [11]): 74%
- viability at 0.2 µM [12]: 105%
- IC50 (A2780 [2]): 6.1 µM
- Activity [13]: 116%
- IC50 [14]: 13.5 µM
- Activity [15]: 190%
- Activity [16]: 111%
- Activity [17]: 121%
- Activity [18]: 132%
- IC50 (WI-38 VA13): 37.4 µM
